Measurements from ChEMBL document CHEMBL4392854, “Discovery, synthesis, biological evaluation and molecular docking study of (R)-5-methylmellein and its analogs as selective monoamine oxidase A inhibitors” (Bioorg Med Chem, 2019).
pIC50: −log10 of the molar value.

Experiments:
[1] = molecular target: T1, Amine oxidase [flavin-containing] A (Homo sapiens, UniProt P21397); test: Inhibition of human recombinant MAOA using kynuramine as substrate incubated for 10 mins by UPLC-ESI-MS/MS analysis
T1 sequence (P21397 whole entry): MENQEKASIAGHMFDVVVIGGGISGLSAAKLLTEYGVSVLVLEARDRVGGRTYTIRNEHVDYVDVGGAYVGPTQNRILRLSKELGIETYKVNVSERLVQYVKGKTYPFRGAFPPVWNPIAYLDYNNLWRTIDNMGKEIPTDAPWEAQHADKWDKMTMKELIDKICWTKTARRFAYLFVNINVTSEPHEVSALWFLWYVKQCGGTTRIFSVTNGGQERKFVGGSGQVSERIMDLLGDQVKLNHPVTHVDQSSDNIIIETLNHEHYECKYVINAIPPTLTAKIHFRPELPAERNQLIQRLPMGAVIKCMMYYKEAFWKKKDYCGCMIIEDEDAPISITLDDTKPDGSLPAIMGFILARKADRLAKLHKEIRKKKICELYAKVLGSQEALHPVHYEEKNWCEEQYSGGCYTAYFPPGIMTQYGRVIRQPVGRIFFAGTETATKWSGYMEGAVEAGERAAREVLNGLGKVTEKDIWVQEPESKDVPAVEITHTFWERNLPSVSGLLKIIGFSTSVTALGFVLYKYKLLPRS

[2] = molecular target: T2, Amine oxidase [flavin-containing] B (Homo sapiens, UniProt P27338); test: Inhibition of human recombinant MAOB using kynuramine as substrate incubated for 10 mins by UPLC-ESI-MS/MS analysis
T2 sequence (P27338 whole entry): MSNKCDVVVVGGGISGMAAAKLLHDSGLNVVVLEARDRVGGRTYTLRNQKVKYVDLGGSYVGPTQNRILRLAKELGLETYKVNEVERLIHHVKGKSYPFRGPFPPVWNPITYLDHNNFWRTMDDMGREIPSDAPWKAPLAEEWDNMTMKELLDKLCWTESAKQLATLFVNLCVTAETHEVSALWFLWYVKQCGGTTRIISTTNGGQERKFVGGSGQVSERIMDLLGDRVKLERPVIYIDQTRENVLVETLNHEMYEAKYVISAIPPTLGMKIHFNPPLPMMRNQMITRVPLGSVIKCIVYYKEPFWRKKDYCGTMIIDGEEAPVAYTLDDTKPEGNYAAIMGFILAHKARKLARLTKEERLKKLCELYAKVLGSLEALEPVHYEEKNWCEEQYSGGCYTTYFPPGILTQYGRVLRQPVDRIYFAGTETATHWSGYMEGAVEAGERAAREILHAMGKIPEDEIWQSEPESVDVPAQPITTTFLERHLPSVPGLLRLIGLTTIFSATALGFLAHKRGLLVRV

[3] = organism: Homo sapiens; test: Selectivity index, ratio of IC50 for human recombinant MAOB to IC50 for human recombinant MAOA
[4] = molecular target: T1, Amine oxidase [flavin-containing] A; test: Inhibition of human recombinant MAOA using kynuramine as substrate incubated for 10 mins by UPLC-ESI-MS/MS analysis based Michaelis-Menten plot kinetic analysis
[5] = molecular target: T1, Amine oxidase [flavin-containing] A; test: Inhibition of human recombinant MAOA using kynuramine as substrate incubated for 10 mins by UPLC-ESI-MS/MS analysis based Eadie-Hofstee plot analysis
[6] = molecular target: T1, Amine oxidase [flavin-containing] A; test: Tight-binding competitive inhibition of human recombinant MAOA using kynuramine as substrate incubated for 10 mins by UPLC-ESI-MS/MS analysis based Lineweaver-Burk plot kinetic analysis
[7] = molecular target: T3, Monoamine oxidase (Mus musculus, UniProt Q8BW75+Q64133); test: Inhibition of mouse brain monoamine oxidase
T3 sequence (Q8BW75 whole entry): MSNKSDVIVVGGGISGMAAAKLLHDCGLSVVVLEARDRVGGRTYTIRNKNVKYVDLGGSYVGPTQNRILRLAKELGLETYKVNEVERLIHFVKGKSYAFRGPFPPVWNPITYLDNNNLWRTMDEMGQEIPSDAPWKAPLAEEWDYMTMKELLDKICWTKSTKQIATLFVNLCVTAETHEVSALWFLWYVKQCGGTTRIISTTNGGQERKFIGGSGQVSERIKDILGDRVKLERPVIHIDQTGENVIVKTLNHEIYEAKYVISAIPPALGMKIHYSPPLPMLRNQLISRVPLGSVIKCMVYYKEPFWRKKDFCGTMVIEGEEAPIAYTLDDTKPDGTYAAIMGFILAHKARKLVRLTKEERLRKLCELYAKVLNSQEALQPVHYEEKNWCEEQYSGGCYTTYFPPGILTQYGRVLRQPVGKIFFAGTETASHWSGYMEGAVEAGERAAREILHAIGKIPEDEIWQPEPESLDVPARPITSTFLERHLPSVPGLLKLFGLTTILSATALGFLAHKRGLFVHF
T3 sequence (Q64133 whole entry): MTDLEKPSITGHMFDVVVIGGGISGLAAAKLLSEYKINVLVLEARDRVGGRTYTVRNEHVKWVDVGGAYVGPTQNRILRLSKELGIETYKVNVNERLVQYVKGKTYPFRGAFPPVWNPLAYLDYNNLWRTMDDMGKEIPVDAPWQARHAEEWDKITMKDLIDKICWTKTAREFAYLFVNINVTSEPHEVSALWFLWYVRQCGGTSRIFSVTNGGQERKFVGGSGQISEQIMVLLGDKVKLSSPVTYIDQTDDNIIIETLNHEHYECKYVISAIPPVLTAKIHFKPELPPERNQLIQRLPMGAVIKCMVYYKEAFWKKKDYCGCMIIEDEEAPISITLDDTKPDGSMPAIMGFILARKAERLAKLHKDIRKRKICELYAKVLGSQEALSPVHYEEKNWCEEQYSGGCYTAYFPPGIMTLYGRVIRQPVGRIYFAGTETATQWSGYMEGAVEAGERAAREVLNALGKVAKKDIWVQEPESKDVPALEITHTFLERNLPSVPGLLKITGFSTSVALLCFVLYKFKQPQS

Row | SMILES | pIC50 [1] | pIC50 [2] | Ratio IC50 [3] | inhibition (INH) [4] | inhibition (INH) [5] | inhibition (INH) [6] | IC50 [7]
1 | CCc1ccc(O)c2c1C[C@@H](C)OC2=O | < 4.30 | 4.79 | < 0.3 |  |  |  | 
2 | Cc1cc(-c2cccc(N)c2)c(O)c2c1C[C@@H](C)OC2=O | 6.70 | < 4.30 | > 250 | Active | Active | Active | 
3 | C[C@@H]1Cc2c(CO)ccc(O)c2C(=O)O1 | < 4.30 | < 4.30 |  |  |  |  | 
4 | Cc1cc(-c2cncnc2)c(O)c2c1C[C@@H](C)OC2=O | 6.85 | < 4.30 | > 350 | Active | Active | Active | 
5 | CC[C@@H]1Cc2c(C)cc(-c3ccc(N)cc3)c(O)c2C(=O)O1 | 6.52 | < 4.30 | > 167 |  |  |  | 
6 | Cc1cc2cccc(O)c2c(=O)o1 | 4.63 | < 4.30 | > 2 |  |  |  | 
7 | C[C@H]1Cc2cccc(O)c2C(=O)O1 | 5.12 | 4.62 | 3.2 |  |  |  | 
8 | Cc1cc(-c2ccncc2)c(O)c2c1C[C@@H](C)OC2=O | 5.57 | < 4.30 | > 18 |  |  |  | 
9 | Cc1cc(-c2ccc(C(F)(F)F)cc2)c(O)c2c1C[C@@H](C)OC2=O | 4.86 | 6.00 | 0.1 |  |  |  | 
10 | C[C@@H]1Cc2c(O)ccc(O)c2C(=O)O1 | 4.77 | < 4.30 | > 2.9 |  |  |  | 
11 | Cc1ccc(O)c2c1C[C@@H](C)OC2=O | 5.34 | 4.41 | 8.3 |  |  |  | 1.06 µM
12 | Cc1ccc(O)c2c1CCOC2=O | 5.49 | 5.26 | 1.7 |  |  |  | 
13 | Cc1cc(-c2cccc([N+](=O)[O-])c2)c(O)c2c1C[C@@H](C)OC2=O | 5.52 | < 4.30 | > 17 |  |  |  | 
14 | Cc1cc(-c2ccccc2)c(O)c2c1C[C@@H](C)OC2=O | 4.98 | 6.00 | 0.1 |  |  |  | 
15 | C[C@@H]1Cc2cccc(O)c2C(=O)O1 [(-)-(R)-MELLEIN] | 5.21 | 4.30 | 8.1 |  |  |  | 
16 | COc1ccc(NCc2cc(C)c3c(c2O)C(=O)O[C@H](C)C3)cc1 | 5.36 | < 4.30 | > 11 |  |  |  | 
17 | Cc1cc(-c2ccc(N)cc2)c(O)c2c1C[C@@H](C)OC2=O | 6.10 | 4.68 | 26 |  |  |  | 
18 | C[C@@H]1Cc2c(C(=O)O)ccc(O)c2C(=O)O1 | < 4.30 | < 4.30 |  |  |  |  | 
19 | Cc1cc(-c2ccccn2)c(O)c2c1C[C@@H](C)OC2=O | 5.68 | < 4.30 | > 24 |  |  |  | 
20 | Cc1ccc(O)c2c1CC(C)(C)OC2=O | < 4.30 | < 4.30 |  |  |  |  | 
21 | CC[C@@H]1Cc2c(C)ccc(O)c2C(=O)O1 | 5.10 | < 4.30 | > 6.2 |  |  |  | 
22 | Cc1ccc(O)c2c1C[C@H](C)OC2=O | 5.39 | 4.39 | 10 |  |  |  | 
23 | COc1cccc2c1C(=O)O[C@H](C)C2 | < 4.30 | < 4.30 |  |  |  |  | 

Next, values leading:

Row | pIC50 [1] | pIC50 [2] | Ratio IC50 [3] | inhibition (INH) [4] | inhibition (INH) [5] | inhibition (INH) [6] | IC50 [7] | SMILES
24 | < 4.30 | < 4.30 |  |  |  |  |  | Cc1cc(C(=O)O)c(O)c2c1C[C@@H](C)OC2=O
25 | 4.72 | < 4.30 | > 2.6 |  |  |  |  | Cc1cc(CO)c(O)c2c1C[C@@H](C)OC2=O
26 | 4.80 | < 4.30 | > 3.1 |  |  |  |  | Cc1cc([N+](=O)[O-])c(O)c2c1C[C@@H](C)OC2=O
27 | 4.80 | < 4.30 | > 3.1 |  |  |  |  | Cc1cc(I)c(O)c2c1C[C@@H](C)OC2=O
28 | 6.70 | < 4.30 | > 250 | Active | Active | Active |  | Cc1cc(-c2cccnc2)c(O)c2c1C[C@@H](C)OC2=O
29 | 5.42 | < 4.30 | > 13 |  |  |  |  | Cc1cc(C)c2c(c1O)C(=O)O[C@H](C)C2
30 | < 4.30 | < 4.30 |  |  |  |  |  | Cc1cc(C#N)c(O)c2c1C[C@@H](C)OC2=O
31 | 5.96 | 4.41 | 38 |  |  |  |  | Cc1cc(-c2ccc(O)cc2)c(O)c2c1C[C@@H](C)OC2=O
32 | 4.91 | 5.39 | 0.3 |  |  |  |  | Cc1ccc(-c2cc(C)c3c(c2O)C(=O)O[C@H](C)C3)cc1
33 | 5.39 | < 4.30 | > 11 |  |  |  |  | Cc1cc(N)c(O)c2c1C[C@@H](C)OC2=O
34 | < 4.30 | < 4.30 |  |  |  |  |  | COc1ccc(C)c2c1C(=O)O[C@@H](C)C2
35 | < 4.30 | < 4.30 |  |  |  |  |  | C=CC(=O)Nc1cc(C)c2c(c1O)C(=O)O[C@H](C)C2
36 | < 4.30 | < 4.30 |  |  |  |  |  | COc1ccc(C)c2c1C(=O)O[C@H](C)C2
37 | < 4.30 | < 4.30 |  |  |  |  |  | Cc1cc(C(=O)N2CCOCC2)c(O)c2c1C[C@@H](C)OC2=O
38 | 4.87 | < 4.30 | > 3.6 |  |  |  |  | Cc1cc(N(C)C)c(O)c2c1C[C@@H](C)OC2=O
39 | 5.35 | < 4.30 | > 11 |  |  |  |  | CCCc1cc(C)c2c(c1O)C(=O)O[C@H](C)C2
40 | 5.66 | < 4.30 | > 22 |  |  |  |  | Cc1cc(Cl)c(O)c2c1C[C@@H](C)OC2=O
41 | 4.74 | < 4.30 | > 2.7 |  |  |  |  | CCCCc1cc(C)c2c(c1O)C(=O)O[C@H](C)C2
42 | < 4.30 | < 4.30 |  |  |  |  |  | CCN(CC)C(=O)c1cc(C)c2c(c1O)C(=O)O[C@H](C)C2
43 | < 4.30 | < 4.30 |  |  |  |  |  | Cc1cc(C(=O)NCCN2CCOCC2)c(O)c2c1C[C@@H](C)OC2=O
44 | 5.54 | < 4.30 | > 17 |  |  |  |  | CCc1cc(C)c2c(c1O)C(=O)O[C@H](C)C2
45 | 4.54 | < 4.30 | > 1.7 |  |  |  |  | Cc1cc(Br)c(O)c2c1C[C@@H](C)OC2=O
46 | < 4.30 | < 4.30 |  |  |  |  |  | Cc1cc(C(=O)N2CCN(C)CC2)c(O)c2c1C[C@@H](C)OC2=O
47 | < 4.30 | < 4.30 |  |  |  |  |  | Cc1cc(C(=O)N(C)C)c(O)c2c1C[C@@H](C)OC2=O
